Data on two compounds can be found in patent publication US20120129818A1, “Compositions and Methods for Treatment of Cardiovascular Disease” (priority 2009, published 2012).

SMILES strings stand for the structures.

Assay [1] deals with xanthine/xanthine oxidase. The assay can be described thus: Superoxide mediated cytochrome c reduction catalyzed by xanthine/xanthine oxidase. It counts as biochemical. Conditions: different concentrations of inhibitor, 549 nm (FIG. 7). The method, then: The reaction mixture contained 250 μL of 5 mM hypoxanthine (1.25 mM final concentration), 100 μL of cytochrome c in buffer, 10 μL of xanthine oxidase enzyme and different concentrations of inhibitor. The final volume was made up to 1 mL with phosphate buffer. The oxidation was monitored by scanning wavelengths between 500 nm to 600 nm with five measurements. The cycle scanning time was 30 seconds.

The next assay concerns the target T1, human MPO (Homo sapiens, UniProt P05164).
T1 construct: purchased Sigma-Aldrich
The assay can be described thus: Myeloperoxidase (MPO) activity assay with tetramethyl benzidine (TMB) substrate. It counts as biochemical. Conditions: for Ki: 50 mM sodium acetate buffer pH 5.6, read-out: Ki (inhibitory values of MPO). The source says:
Various methods of measuring a reduction in MPO activity are known to those of ordinary skill in the art and can be used in accordance with the present invention. For example, in one embodiment, MPO activity can be measured by combining an amount of an MPO enzyme, or a sample containing an MPO enzyme, with H2O2, a tetramethyl benzidine (TMB) substrate, and an MPO inhibitor (e.g., a compound of the present invention), and then measuring the optical density of the resulting product.
Typically, the reaction mixture (200 μl) contained 20 mU human MPO (Sigma-Aldrich, St. Louis, Mo.), 400 nmol H2O2, 1.6 μmol of TMB, and varying concentrations of methylenedioxyphenyl ferulate (Formula (II)) or ferulylproline (Formula (XVI)).
The reaction was performed in a volume of 200 μl with 50 mM sodium acetate buffer at pH 5.6. The reaction was initiated by adding MPO and the optical density of the product formed was then read at 650 nm in a microplate reader at various time points.

Assay [2] deals with human low-density lipoprotein (LDL). Kind of assay: Cu (II) induced LDL oxidation, conjugated diene formation at 234 nm. It counts as biochemical. The settings on record: 10 and 25 μM compound, 100 μg LDL protein, 5 μM Cu (II), pH 7.4, room temperature (FIG. 6). On the procedure: To determine the effect of the presently-disclosed compounds on low-density lipoprotein (LDL) oxidation, standard LDL oxidation reactions were carried out in the presence of methylenedioxyphenyl ferulate (FMDP; Formula (II)) and ferulylproline (Formula (XVI). Briefly, the in vitro oxidation reaction of LDL was carried out at room temperature in potassium phosphate buffer, pH 7.4. The reaction mixture contained 100 μg LDL protein and 5 μM Cu (II) with a final volume of 1 mL. The oxidation of LDL was followed by measuring the formation of a conjugated diene at 234 nm for a total of 300 min using a spectrophotometer. The time course of Cu (II) induced LDL oxidation was then performed. […] The increase in the oxidation of LDL in presence of 10 μM and 25 μM ferulylproline was attributed to the formation of Cu (II)-ferulylproline complex which would act as a pro-oxidant of LDL. Oxidation of LDL lipid by Cu (II) mediated oxidation both in the absence of any inhibitor and in the presence of 10 μM and 25 μM of methylenedioxyphenyl ferulate and ferulylproline was performed by monitoring the oxidation for 200 minutes.

The target in the next assay is T2, MPO (Homo sapiens, UniProt P05164).
T2 sequence (P05164 49-745): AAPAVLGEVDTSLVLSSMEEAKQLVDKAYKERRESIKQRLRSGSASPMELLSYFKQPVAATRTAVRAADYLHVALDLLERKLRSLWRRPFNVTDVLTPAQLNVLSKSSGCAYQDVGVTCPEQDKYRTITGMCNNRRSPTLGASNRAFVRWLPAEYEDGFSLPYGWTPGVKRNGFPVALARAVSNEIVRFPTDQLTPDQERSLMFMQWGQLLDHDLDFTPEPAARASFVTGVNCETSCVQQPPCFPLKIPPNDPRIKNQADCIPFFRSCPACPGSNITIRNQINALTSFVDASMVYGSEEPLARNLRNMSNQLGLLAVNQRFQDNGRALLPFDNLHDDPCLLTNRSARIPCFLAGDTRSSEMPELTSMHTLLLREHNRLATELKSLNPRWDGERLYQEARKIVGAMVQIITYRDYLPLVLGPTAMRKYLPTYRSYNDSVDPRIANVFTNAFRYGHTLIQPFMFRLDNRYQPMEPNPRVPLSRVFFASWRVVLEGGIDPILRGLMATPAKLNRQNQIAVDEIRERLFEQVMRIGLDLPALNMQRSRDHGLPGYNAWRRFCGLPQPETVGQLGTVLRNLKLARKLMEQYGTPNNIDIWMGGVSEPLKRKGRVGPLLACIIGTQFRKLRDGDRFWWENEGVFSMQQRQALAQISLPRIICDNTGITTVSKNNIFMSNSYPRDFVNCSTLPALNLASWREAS
Kind of assay: Analysis of whether the compounds act as MPO substrates (UV-Visible spectrum, TLC). It counts as biochemical. The method, then: It is known that MPO acts on a variety of substrates and, as such, it was thought that it may be theoretically possible that methylenedioxyphenyl ferulate (Formula (II)) and ferulylproline (Formula (XVI)) could be acting as MPO substrates and competitively masking the formation of products from the added substrates in the above-described experiments. […] In these experiments, a reaction mixture was produced that contained 720 μL of sodium acetate buffer, 100 μL of 100 mM H2O2, 100 μL of MPO enzyme with added compounds of the present invention, and a total volume made up to 1 mL. Upon analysis of this reaction mixture, however, there was no indication of any colored product even when the reaction mixture contained only the inhibitor and not the MPO substrate. To strengthen this finding, thin layer chromatography (TLC) was run with the MPO assay solution and inhibitor (50% ethylacetate:hexane) and spot identification was done in an iodine chamber.

Assay [3] is described as follows: Chlorotaurine formation (HOCl-mediated chlorination of taurine, TNB readout at 412 nm). The settings on record: various concentrations, 37° C. for 10 min, absorption 412 nm (FIG. 8). On the procedure: Chlorotaurine is formed by the oxidation of taurine by the chlorinating oxidant hypochlorous acid (HOCl), which is formed by MPO-mediated 2-electron oxidation of chloride by H2O2. To determine if the compounds of the present invention were capable of inhibiting the formation of chlorotaurine, a reaction mixture was produced that contained 50 uL of 150 mM taurine, various concentrations of methylenedioxyphenyl ferulate (Formula (II)) or ferulylproline (Formula (XVI)), and 250 μL of hypochlorous acid in sodium phosphate buffer. The mixture was incubated at 37° C. for 10 min followed by addition of 60 μL of 40 mM thionitrobenzoic acid (TNB). The whole solution was made up to 1.5 mL and absorption was measured at 412 nm using a UV-Visible spectrophotometer. […] Furthermore, although both of these compounds react differently toward chlorotaurine oxidation, they seem to show specificity toward MPO inhibition.

For orientation: Ki means a measure of affinity in units of concentration, obtained from inhibition or displacement. Consider `COc1cc(/C=C/C(=O)N2CCCC2C(=O)O)ccc1O` (centres unmarked) [ferulylproline], for which the “Inhibition of superoxide mediated cytochrome c reduction” value in assay [1] was “inhibited the reaction”. Also, the Ki at human MPO was 4 µM. The “Inhibition of MPO activity” value at human MPO (varying concentrations, OD 650 nm (FIGS. 4 and 5)) was “significantly inhibited MPO”. Further, in assay [2], the “Effect on Cu (II) induced LDL oxidation” value was “acted as a pro-oxidant reducing the lag time”. For the same compound, the “Product formation during the MPO reaction by TLC / MPO substrate behaviour” value on MPO (MPO assay solution and inhibitor, 50% ethylacetate:hexane, iodine chamber) was “do not act as an MPO substrate”. The “Product formation in UV-Visible spectrum between 200 to 700 nm with and without MPO” value on MPO (sodium acetate buffer, H2O2, MPO enzyme, no MPO substrate (FIGS. 9 and 10)) is “failed to show any product”. In addition, the “Inhibition of chlorotaurine formation” value in assay [3] is “did not cause any inhibition”.

Take `COc1cc(/C=C/C(=O)Oc2ccc3c(c2)OCO3)ccc1O` [methylenedioxyphenyl ferulate]: on human MPO, the Ki amounted to 8.5 µM.
